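How tested: cells in 96-well plates exposed to compound for 48 hours at five concentrations. TGI denotes the concentration required for complete inhibition of growth.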
Tests used:
Assay in all cases: DTP human tumour cell line panel, 48 h
SNB-75 CNS = system: SNB-75 CNS
MDA-MB-435 = system: MDA-MB-435
UACC-62 melanoma = system: UACC-62 melanoma
KM12 colon = system: KM12 colon
HT29 colon = system: HT29 colon
SK-OV-3 ovarian = system: SK-OV-3 ovarian
OVCAR-8 ovarian = system: OVCAR-8 ovarian
NCI-H460 lung = system: NCI-H460 lung
K-562 leukemia = system: K-562 leukemia
ACHN renal = system: ACHN renal
UACC-257 melanoma = system: UACC-257 melanoma
HS 578T breast = system: HS 578T breast
COLO 205 colon = system: COLO 205 colon
HCC-2998 colon = system: HCC-2998 colon
CAKI-1 renal = system: CAKI-1 renal
RPMI-8226 leukemia = system: RPMI-8226 leukemia
SF-295 CNS = system: SF-295 CNS
HOP-62 NSCLC = system: HOP-62 NSCLC
OVCAR-4 ovarian = system: OVCAR-4 ovarian
MDA-MB-231 breast = system: MDA-MB-231 breast
NCI-H226 lung = system: NCI-H226 lung
PC-3 prostate = system: PC-3 prostate
SN12C renal = system: SN12C renal
U251 CNS = system: U251 CNS
SK-MEL-28 melanoma = system: SK-MEL-28 melanoma
NCI-H522 lung = system: NCI-H522 lung
MOLT-4 leukemia = system: MOLT-4 leukemia
UO-31 renal = system: UO-31 renal
SF-268 CNS = system: SF-268 CNS
EKVX NSCLC = system: EKVX NSCLC
SK-MEL-5 melanoma = system: SK-MEL-5 melanoma
MCF7 breast = system: MCF7 breast
NCI-H23 lung = system: NCI-H23 lung
TK-10 renal = system: TK-10 renal
OVCAR-3 ovarian = system: OVCAR-3 ovarian
MALME-3M melanoma = system: MALME-3M melanoma
HOP-92 NSCLC = system: HOP-92 NSCLC
SR leukemia = system: SR leukemia
CCRF-CEM leukemia = system: CCRF-CEM leukemia
SK-MEL-2 melanoma = system: SK-MEL-2 melanoma
M14 melanoma = system: M14 melanoma
T-47D breast = system: T-47D breast
SW-620 colon = system: SW-620 colon
A498 renal = system: A498 renal
SNB-19 CNS = system: SNB-19 CNS
HCT-116 colon = system: HCT-116 colon
BT-549 breast = system: BT-549 breast
MDA-N = system: MDA-N
NCI/ADR-RES ovarian = system: NCI/ADR-RES ovarian
A549 NSCLC = system: A549 NSCLC
SF-539 CNS = system: SF-539 CNS
DU-145 prostate = system: DU-145 prostate
LOX IMVI melanoma = system: LOX IMVI melanoma
HCT-15 colon = system: HCT-15 colon
RXF 393 renal = system: RXF 393 renal
786-0 renal = system: 786-0 renal
OVCAR-5 ovarian = system: OVCAR-5 ovarian
HL-60(TB) leukemia = system: HL-60(TB) leukemia
IGROV1 ovarian = system: IGROV1 ovarian

In the case of `CCOC(=O)c1c(N2CCOCC2)[nH]c(=O)c(C(c2c(O)c(C(=O)OCC)c(N3CCOCC3)[nH]c2=O)C(C)C)c1O`, the TGI (SNB-75 CNS) is reported as 69.7 µM, the TGI (MDA-MB-435) is reported as greater than 100 µM and the TGI (UACC-62 melanoma) is reported as greater than 100 µM. For the same compound, the TGI (KM12 colon) was greater than 100 µM, the TGI (HT29 colon) was greater than 100 µM and the TGI (SK-OV-3 ovarian) was greater than 100 µM. It also gave a TGI (OVCAR-8 ovarian) greater than 100 µM, a TGI (NCI-H460 lung) greater than 100 µM and a TGI (K-562 leukemia) greater than 100 µM. It also gave a TGI (ACHN renal) greater than 100 µM, a TGI (UACC-257 melanoma) greater than 100 µM and a TGI (HS 578T breast) greater than 100 µM. For the same compound, the TGI (COLO 205 colon) was greater than 100 µM, the TGI (HCC-2998 colon) was greater than 100 µM and the TGI (CAKI-1 renal) was greater than 100 µM. For the same compound, the TGI (RPMI-8226 leukemia) was greater than 100 µM, the TGI (SF-295 CNS) was greater than 100 µM and the TGI (HOP-62 NSCLC) was greater than 100 µM. The TGI (OVCAR-4 ovarian) was greater than 100 µM, the TGI (MDA-MB-231 breast) was greater than 100 µM and the TGI (NCI-H226 lung) was greater than 100 µM. For the same compound, the TGI (PC-3 prostate) was greater than 100 µM, the TGI (SN12C renal) was greater than 100 µM and the TGI (U251 CNS) was greater than 100 µM. The TGI (SK-MEL-28 melanoma) was greater than 100 µM, the TGI (NCI-H522 lung) was greater than 100 µM and the TGI (MOLT-4 leukemia) was greater than 100 µM. The TGI (UO-31 renal) was greater than 100 µM, the TGI (SF-268 CNS) was greater than 100 µM and the TGI (EKVX NSCLC) was greater than 100 µM. The TGI (SK-MEL-5 melanoma) was greater than 100 µM, the TGI (MCF7 breast) was greater than 100 µM and the TGI (NCI-H23 lung) was greater than 100 µM. The TGI (TK-10 renal) was greater than 100 µM, the TGI (OVCAR-3 ovarian) was greater than 100 µM and the TGI (MALME-3M melanoma) was greater than 100 µM. For the same compound, the TGI (HOP-92 NSCLC) was greater than 100 µM, the TGI (SR leukemia) was greater than 100 µM and the TGI (CCRF-CEM leukemia) was greater than 100 µM. The TGI (SK-MEL-2 melanoma) was greater than 100 µM, the TGI (M14 melanoma) was greater than 100 µM and the TGI (T-47D breast) was greater than 100 µM. For the same compound, the TGI (SW-620 colon) was greater than 100 µM, the TGI (A498 renal) was greater than 100 µM and the TGI (SNB-19 CNS) was greater than 100 µM. It also gave a TGI (HCT-116 colon) greater than 100 µM, a TGI (BT-549 breast) greater than 100 µM and a TGI (MDA-N) greater than 100 µM. It also gave a TGI (NCI/ADR-RES ovarian) greater than 100 µM, a TGI (A549 NSCLC) greater than 100 µM and a TGI (SF-539 CNS) greater than 100 µM. For the same compound, the TGI (DU-145 prostate) was greater than 100 µM, the TGI (LOX IMVI melanoma) was greater than 100 µM and the TGI (HCT-15 colon) was greater than 100 µM. It also gave a TGI (RXF 393 renal) greater than 100 µM, a TGI (786-0 renal) greater than 100 µM and a TGI (OVCAR-5 ovarian) greater than 100 µM. The TGI (HL-60(TB) leukemia) was greater than 100 µM.

For `CC(=O)OCC1OC(O[C@@H]2C[C@H]3C(C)(C)[C@H](OC(C)=O)CC[C@]3(C)[C@H]3CC[C@@]45C[C@H](O)C[C@H](C)[C@@H]4CC=C5[C@@]32C)C(O)C(O)C1O` (some centres not stated), the TGI (SNB-75 CNS) was 10.9 µM, the TGI (MDA-MB-435) was 11.2 µM and the TGI (UACC-62 melanoma) was 16.6 µM. The TGI (KM12 colon) was 7.59 µM, the TGI (HT29 colon) was 3.7 µM and the TGI (SK-OV-3 ovarian) was 22 µM. The TGI (OVCAR-8 ovarian) was 17.4 µM, the TGI (NCI-H460 lung) was 12.5 µM and the TGI (K-562 leukemia) was 7.66 µM. For the same compound, the TGI (ACHN renal) was 18.5 µM, the TGI (UACC-257 melanoma) was 17.8 µM and the TGI (HS 578T breast) was 18.2 µM. It also gave a TGI (COLO 205 colon) of 3.28 µM, a TGI (HCC-2998 colon) of 3.72 µM and a TGI (CAKI-1 renal) of 24.6 µM. The TGI (RPMI-8226 leukemia) was 6.02 µM, the TGI (SF-295 CNS) was 12.5 µM and the TGI (HOP-62 NSCLC) was 23.8 µM. It also gave a TGI (OVCAR-4 ovarian) of 16.4 µM, a TGI (MDA-MB-231 breast) of 11.6 µM and a TGI (NCI-H226 lung) of 16.1 µM. It also gave a TGI (PC-3 prostate) of 10.7 µM, a TGI (SN12C renal) of 15.5 µM and a TGI (U251 CNS) of 10.3 µM. For the same compound, the TGI (SK-MEL-28 melanoma) was 19.4 µM, the TGI (NCI-H522 lung) was 9.28 µM and the TGI (MOLT-4 leukemia) was 6.33 µM. For the same compound, the TGI (UO-31 renal) was 26.3 µM, the TGI (SF-268 CNS) was 15.6 µM and the TGI (EKVX NSCLC) was 22 µM. For the same compound, the TGI (SK-MEL-5 melanoma) was 8.65 µM, the TGI (MCF7 breast) was 11 µM and the TGI (NCI-H23 lung) was 18.3 µM. It also gave a TGI (TK-10 renal) of 21.4 µM, a TGI (OVCAR-3 ovarian) of 10.6 µM and a TGI (MALME-3M melanoma) of 20.3 µM. It also gave a TGI (HOP-92 NSCLC) of 15 µM, a TGI (SR leukemia) of 4.27 µM and a TGI (CCRF-CEM leukemia) of 13.6 µM. For the same compound, the TGI (SK-MEL-2 melanoma) was 5.93 µM, the TGI (M14 melanoma) was 14.8 µM and the TGI (T-47D breast) was 13.7 µM. For the same compound, the TGI (SW-620 colon) was 16.6 µM, the TGI (A498 renal) was 15.8 µM and the TGI (SNB-19 CNS) was 14.9 µM. The TGI (IGROV1 ovarian) was 9.33 µM, the TGI (HCT-116 colon) was 4.85 µM and the TGI (BT-549 breast) was 12.7 µM. The TGI (MDA-N) was 12.4 µM, the TGI (NCI/ADR-RES ovarian) was 32.9 µM and the TGI (A549 NSCLC) was 16.9 µM. For the same compound, the TGI (SF-539 CNS) was 19.2 µM, the TGI (DU-145 prostate) was 20.6 µM and the TGI (LOX IMVI melanoma) was 4.07 µM. It also gave a TGI (HCT-15 colon) of 25.5 µM, a TGI (RXF 393 renal) of 6.23 µM and a TGI (786-0 renal) of 12.8 µM. For the same compound, the TGI (OVCAR-5 ovarian) was 6.42 µM and the TGI (HL-60(TB) leukemia) was 3.86 µM.
